From patent US10202365B2, “2-(pyridin-3-yl)-pyrimidine derivatives as RET inhibitors” (BLUEPRINT MEDICINES CORPORATION, priority 2015, dated 2019)

biological target: wild type RET (Homo sapiens (Human), UniProt P07949); test: RET Wild Type Assay at KM (Caliper electrophoretic mobility shift); type: biochemical; conditions: 25 μM ATP, 25° C., 120 minutes
Sequence (P07949 29-1114): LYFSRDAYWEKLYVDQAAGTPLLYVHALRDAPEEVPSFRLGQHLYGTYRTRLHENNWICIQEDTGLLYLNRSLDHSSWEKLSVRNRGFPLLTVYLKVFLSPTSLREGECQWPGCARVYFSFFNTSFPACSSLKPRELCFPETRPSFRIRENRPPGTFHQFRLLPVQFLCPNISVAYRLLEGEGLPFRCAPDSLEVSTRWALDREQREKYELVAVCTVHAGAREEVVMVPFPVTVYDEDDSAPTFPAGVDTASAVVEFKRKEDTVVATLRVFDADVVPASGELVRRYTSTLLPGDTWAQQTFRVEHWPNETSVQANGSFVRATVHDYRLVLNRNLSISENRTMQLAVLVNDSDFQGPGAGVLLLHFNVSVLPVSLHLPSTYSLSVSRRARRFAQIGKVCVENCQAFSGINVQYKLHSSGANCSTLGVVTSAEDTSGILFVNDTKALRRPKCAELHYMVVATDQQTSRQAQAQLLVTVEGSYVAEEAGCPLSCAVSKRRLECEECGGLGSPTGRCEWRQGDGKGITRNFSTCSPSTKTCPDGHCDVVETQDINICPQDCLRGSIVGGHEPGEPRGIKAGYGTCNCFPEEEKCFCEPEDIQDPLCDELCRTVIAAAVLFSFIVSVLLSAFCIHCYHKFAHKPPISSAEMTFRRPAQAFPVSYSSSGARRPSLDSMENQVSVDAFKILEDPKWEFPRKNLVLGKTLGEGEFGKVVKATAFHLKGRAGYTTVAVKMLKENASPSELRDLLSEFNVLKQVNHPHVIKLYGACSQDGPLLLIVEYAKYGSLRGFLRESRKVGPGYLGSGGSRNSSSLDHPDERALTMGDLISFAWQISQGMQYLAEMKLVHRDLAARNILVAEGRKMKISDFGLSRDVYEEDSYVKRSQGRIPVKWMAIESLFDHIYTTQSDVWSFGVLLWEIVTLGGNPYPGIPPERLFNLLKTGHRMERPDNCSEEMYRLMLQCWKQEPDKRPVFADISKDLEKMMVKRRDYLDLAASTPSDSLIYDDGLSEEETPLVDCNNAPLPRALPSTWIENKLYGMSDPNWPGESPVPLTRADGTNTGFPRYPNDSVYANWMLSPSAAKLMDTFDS

| Structure (SMILES) | IC50 [nM] |
| --- | --- |
| Cc1cc(Nc2cc(C)[nH]n2)nc(-c2ccc(C(=O)NCc3ccoc3)nc2)n1 [Compound 1] | 10 to 100 |
| Cc1cc(Nc2cc(C)[nH]n2)nc(-c2ccc(C(=O)NCc3cncs3)nc2)n1 [Compound 3] | > 100 |
| Cc1cc(Nc2cc(C)[nH]n2)nc(-c2ccc(C(=O)N3Cc4ccccc4C3)nc2)n1 [Compound 4] | 10 to 100 |
| Cc1ccc(CNC(=O)c2ccc(-c3nc(C)cc(Nc4cc(C)[nH]n4)n3)cn2)cc1 [Compound 5] | 10 to 100 |
| Cc1cc(Nc2cc(C)[nH]n2)nc(-c2ccc(C(=O)N[C@H](C)c3ccccc3)nc2)n1 [Compound 6] | > 100 |
| Cc1ccc(CNC(=O)c2ccc(-c3nc(C)cc(Nc4cc(C)[nH]n4)n3)cn2)nc1 [Compound 7] | 10 to 100 |
| Cc1cc(Nc2cc(C)[nH]n2)nc(-c2ccc(C(=O)NCc3cccc(F)c3)nc2)n1 [Compound 8] | > 100 |
| Cc1cc(Nc2cc(C)[nH]n2)nc(-c2ccc(C(=O)NCc3ccc(F)cc3)nc2)n1 [Compound 9] | 10 to 100 |
| Cc1cc(Nc2cc(C)[nH]n2)nc(-c2ccc(C(=O)NCc3ccc(Cl)cc3)nc2)n1 [Compound 11] | 10 to 100 |
| Cc1cc(Nc2cc(C)[nH]n2)nc(-c2cnc(C(=O)NCc3ccc(-n4cccn4)nc3)c(C)c2)n1 [Compound 19] | < 10 |
| Cc1cc(Nc2cc(C)[nH]n2)nc(-c2ccc(C(=O)NCc3cnc(-n4cc(F)cn4)cn3)nc2)n1 [Compound 21] | < 10 |
| Cc1cc(Nc2cc(C)[nH]n2)nc(-c2ccc(C(=O)NCc3ccc(-n4cc(C#N)cn4)nc3)nc2)n1 [Compound 22] | 10 to 100 |
| Cc1cc(Nc2cc(C)[nH]n2)nc(-c2ccc(C(=O)NCc3ccc(-n4ccc(C5CC5)n4)nc3)nc2)n1 [Compound 26] | < 10 |
| Cc1cc(Nc2cc(C)[nH]n2)nc(-c2ccc(C(=O)NCc3ccc(-n4cc(C5CC5)cn4)nc3)nc2)n1 [Compound 27] | 10 to 100 |
| Cc1cc(Nc2cc(C)[nH]n2)nc(-c2ccc(C(=O)NCc3ccc(-n4cc(CCO)cn4)nc3)nc2)n1 [Compound 28] | 10 to 100 |
| Cc1cc(Nc2cc(C)[nH]n2)nc(-c2cnc(C(=O)N[C@@H](C)c3ccc(-n4cc(F)cn4)nc3)c(C)c2)n1 [Compound 29, (S)—N-(1-(6-(4-fluoro-1H-pyrazol-1-yl)pyridin-3-yl)ethyl)-3-methyl-5-(4-methyl-6-((5-methyl-1H-pyrazol-3-yl)amino)pyrimidin-2-yl)picolinamide] | < 10 |
| Cc1cc(Nc2cc(C)[nH]n2)nc(-c2ccc(C(=O)NCc3ccc(-n4cc(C(F)F)c(C)n4)nc3)nc2)n1 [Compound 32] | 10 to 100 |

Second part, the compound after the results:

| IC50 [nM] | Structure (SMILES) |
| --- | --- |
| 10 to 100 | CCOc1ccc(CNC(=O)c2ncc(-c3nc(C)cc(Nc4cc(C)[nH]n4)n3)cc2C)cc1 [Compound 13] |
| > 100 | CCOc1ccc([C@@H](C)NC(=O)c2ncc(-c3nc(C)cc(Nc4cc(C)[nH]n4)n3)cc2C)cc1 [Compound 16] |
| > 100 | CCOc1ccc([C@H](C)NC(=O)c2ncc(-c3nc(C)cc(Nc4cc(C)[nH]n4)n3)cc2C)cc1 [Compound 17] |
| < 10 | Cc1cnn(-c2ccc(CNC(=O)c3ccc(-c4nc(C)cc(Nc5cc(C)[nH]n5)n4)cn3)cn2)c1 [Compound 18] |
| < 10 | Cc1cc(Nc2cc(C)[nH]n2)nc(-c2cnc(C(=O)N[C@@H](C)c3ccc(-n4cccn4)nc3)c(C)c2)n1 [Compound 23] |
| < 10 | Cc1cc(Nc2cc(C)[nH]n2)nc(-c2ccc(C(=O)NCc3ccc(-n4nc(C)cc4C)nc3)nc2)n1 [Compound 24] |
| < 10 | Cc1cc(Nc2cc(C)[nH]n2)nc(-c2ccc(C(=O)N[C@@H](C)c3ccc(-n4cc(F)cn4)nc3)nc2)n1 [Compound 25, (S)—N-(1-(6-(4-fluoro-1H-pyrazol-1-yl)pyridin-3-yl)ethyl)-5-(4-methyl-6-((5-methyl-1H-pyrazol-3-yl)amino)pyrimidin-2-yl)picolinamide] |
| < 10 | Cc1cc(Nc2cc(C)[nH]n2)nc(-c2cnc(C(=O)N[C@@H](C)c3ccc(-n4cc(F)cn4)nc3)c(F)c2)n1 [Compound 30, (S)-3-fluoro-N-(1-(6-(4-fluoro-1H-pyrazol-1-yl)pyridin-3-yl)ethyl)-5-(4-methyl-6-((5-methyl-1H-pyrazol-3-yl)amino)pyrimidin-2-yl)picolinamide] |
| 10 to 100 | Cc1cc(Nc2cc(C)[nH]n2)nc(-c2ccc(C(=O)NCc3ccc(-n4cc(C(F)F)cn4)nc3)nc2)n1 [Compound 31] |
| < 10 | CC[C@@H](NC(=O)c1ccc(-c2nc(C)cc(Nc3cc(C)[nH]n3)n2)cn1)c1ccc(-n2cc(F)cn2)nc1 [Compound 34] |
